Test results: US20260098008A1, “COVALENT, CHEMOGENETIC ACTIVATORS FOR K2P POTASSIUM CHANNELS AND USES THEREOF” (THE REGENTS OF THE UNIVERSITY OF CALIFORNIA, priority 2022, published 2026)
Numbering of substitutions follows the chain as printed.

Tests used:
Assay type in all cases: cell-based
[1] = biological target: T1, CG*-CG* tandem K2P2.1 (TREK-1) (Mus musculus, UniProt P97438, S146C); test: TEVC in Xenopus oocytes, tandem channels; details: 20 μM, sequential application
T1 construct: expressed in transfected cells; host or cells: Xenopus laevis oocytes injected with mRNA
T1 sequence (P97438 1-411 isoform P97438-2 S131C) 1: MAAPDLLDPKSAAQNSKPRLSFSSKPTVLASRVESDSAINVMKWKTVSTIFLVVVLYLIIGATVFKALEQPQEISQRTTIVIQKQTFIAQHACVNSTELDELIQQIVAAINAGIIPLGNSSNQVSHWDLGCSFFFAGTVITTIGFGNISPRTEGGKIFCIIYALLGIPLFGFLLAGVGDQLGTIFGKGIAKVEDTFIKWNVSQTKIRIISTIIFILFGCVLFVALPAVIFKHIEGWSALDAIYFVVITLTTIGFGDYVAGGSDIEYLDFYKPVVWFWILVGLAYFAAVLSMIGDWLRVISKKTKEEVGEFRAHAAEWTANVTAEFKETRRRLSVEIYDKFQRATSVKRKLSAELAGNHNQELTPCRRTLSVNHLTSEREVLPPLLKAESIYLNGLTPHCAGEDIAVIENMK
T1 sequence (P97438 1-411 isoform P97438-2 S131C) 2: T1 sequence (P97438 1-411 isoform P97438-2 S131C) 1
Text: (§1) Mouse K2P2.1 (TREK-1) (Genbank accession number: NP_034737.2), mouse K2P10.1 (TREK-2) (NM_001316665.1), mouse K2P4.1 (TRAAK) (NM_008431.3), human K2P4.1 (TRAAK) (NM_033310.2) and mouse K2P18.1(TRESK) (NM_207261.3) were used for this study. Point mutations were introduced by site-directed mutagenesis using custom primers and confirmed by sequencing before use. For studies using Xenopus oocytes, K2P channels were subcloned into a previously reported pGEMHE/pMO vector (46). For expression in HEK293 cells, mouse K2P2.1 (TREK-1) and mutants were expressed from a previously described pIRES2-EGFP vector in HEK293 cells (46,47). K2P2.1 (TREK-1) tandems were constructed by connecting the open reading frames for the individual subunits with a linker encoding the […] (SEQ ID NO: 19) sequence. Tandems used for HEK293 cells included an N-terminal HA tag ([…] (SEQ ID NO: 20)) on the first subunit.
(§2) Xenopus laevis oocytes were harvested according to UCSF IACUC Protocol AN129690 and digested using collagenase (Worthington Biochemical Corporation, #LS004183, 0.8-1.0 mg/mL) in Ca^21-free ND96 (96 mM NaCl, 2 mM KCl, 3.8 mM MgCl2, 5 mM HEPES pH 7.4) immediately post-harvest, as previously reported (31,33). Oocytes were maintained at 18° C. in ND96 (96 mM NaCl, 2 mM KCl, 1.8 mM CaCl2, 2 mM MgCl2, 5 mM HEPES pH 7.4) supplemented with antibiotics (100 units mL^−1 penicillin, 100 μg mL^−1 streptomycin, 50 μg mL^−1 gentimycin) and used for experiments within one week of harvest.
(§3) Defolliculated stage V-VI oocytes were microinjected with 0.5-36 ng mRNA and currents were recorded within 16-48 h hours of injection.
(§4) For recordings, oocytes were impaled with borosilicate recording microelectrodes (0.4-2.0 MΩ resistance) backfilled with 3 M KCl and were subjected to constant perfusion of ND96 at a rate of 3 ml min^−1. Recording solutions containing K2P activators were prepared immediately prior to use from DMSO stocks (20-100 mM), with final DMSO concentrations of 0.1%. Currents were evoked from a −80 mV holding potential followed by a 300 ms ramp from −150 mV to +50 mV. Data were recorded using a GeneClamp 500B amplifier (MDS Analytical Technologies) controlled by pCLAMP8 software (Molecular Devices), and digitized at 1 kHz using Digidata 1332 Å digitizer (MDS Analytical Technologies). For each recording, control solution (ND96) was perfused over a single oocyte until current was stable before switching to solutions containing the test compounds at various concentrations. Representative traces and dose response plots were generated in GraphPad Prism 9.

A286F K2P2.1 (TREK-1) = biological target: T2, A286F K2P2.1 (TREK-1) (Mus musculus, UniProt P97438, A301F); test: TEVC in Xenopus oocytes, attenuated channels; details: 20 μM; sequential addition of ML335, CAT335, BL-1249; 0 mV
T2 construct: expressed in transfected cells; host or cells: Xenopus laevis oocytes injected with mRNA
T2 sequence (P97438 1-411 isoform P97438-2 A286F): T1 sequence (P97438 1-411 isoform P97438-2 S131C) 1 with C131S, A286F
Text: as §1, §2, §3, §4

G171F K2P2.1 (TREK-1) = biological target: T3, G171F K2P2.1 (TREK-1) (Mus musculus, UniProt P97438, G186F); test: TEVC in Xenopus oocytes, attenuated channels; details: 20 μM; sequential addition of ML335, CAT335, BL-1249; 0 mV
T3 construct: expressed in transfected cells; host or cells: Xenopus laevis oocytes injected with mRNA
T3 sequence (P97438 1-411 isoform P97438-2 G171F): T1 sequence (P97438 1-411 isoform P97438-2 S131C) 1 with C131S, G171F
Text: as §1, §2, §3, §4

| Compound | Fold-activation (I activator/I control) [1] | Fold-activation (I activator/I control) (A286F K2P2.1 (TREK-1)) | Fold-activation (I activator/I control) (G171F K2P2.1 (TREK-1)) |
| --- | --- | --- | --- |
| CS(=O)(=O)Nc1ccc(C(=O)NCc2ccc(Cl)cc2Cl)cc1 [ML335, reference compound] | 4.5±0.3 fold | 1-1.8 fold | 1-1.8 fold |
| c1ccc(-c2nn[nH]n2)c(Nc2cccc3c2CCCC3)c1 [BL-1249, reference compound] |  | 19.4±1.3 fold | 3.8±0.5 fold |
| O=C(NCc1ccc(Cl)cc1Cl)c1ccc(N2C(=O)C=CC2=O)cc1 [CAT335] | 14.7 ± 0.9 fold | insensitive | insensitive |
